Data from US20210138025A1, “CATIONIC PEPTIDES WITH IMMUNOMODULATORY AND/OR ANTI-BIOFILM ACTIVITIES” (priority 2018, published 2021).
Non-standard residues stand in square brackets, D forms with d. No end group written: not given here. Orn = NCCC[C@H](N)C(=O)O

Experiments:
PBMCs = experiment: Cytotoxicity towards PBMCs, lactate dehydrogenase (LDH) release assay (Tables 6, 7); conditions: SPOT synthesized peptide ~25 μM, PBMCs from 3 human donors; Table 6
S. aureus (MRSA SAP0017) = type: cell-based, Staphylococcus aureus
Protocol: Methods of assessment of anti-biofilm activity: MRSA S. aureus strain SAP0017 biofilm formation was initially analyzed using a static abiotic solid surface assay as described elsewhere (de la Fuente-Nunez et al., 2012) and shown graphically in FIG. 2. Dilutions (1/100) of overnight cultures were incubated in BM2 biofilm-adjusted medium [62 mM potassium phosphate buffer (pH 7), 7 mM (NH4)2SO4, 2 mM MgSO4, 10 μM FeSO4, 0.4% (wt/vol) glucose, 0.5% (wt/vol) Casamino Acids], or a nutrient rich medium such as Tryptic soy broth supplemented with 1% glucose, in polypropylene microtiter plates (Falcon, United States) in the absence (control) or presence of peptide. Peptide was added at time zero (prior to adding the diluted, overnight cultures) in varying concentrations, and the amount biofilm formation was recorded after 22-46 h incubation for most bacteria. To quantify biofilm growth, planktonic cells were removed and biofilm cells adhering to the side of the wells were stained with crystal violet, and absorbance at 595 nm was measured using a microtiter plate reader (Bio-Tek Instruments Inc., United States).

[1] = tested on: planktonic methicillin resistant S. aureus; experiment: microbe, parasite or virus in culture; type: cell-based, Staphylococcus aureus; conditions: planktonic methicillin resistant S. aureus, mean of three biological replicates

Row | Substance | % Toxicity (LDH Release) (PBMCs) [%] | other results
1 | GRVLKIVWRKGR-NH2 [Mmax-3, GRVLKIVWRKGR] | 4.2 | 
2 | IKWVLRKIVQII-NH2 [IBFmax-17, IKWVLRKIVQII] | 3.6 | 
3 | IQLKLIWVKRKW-NH2 [MILBFmax5, IQLKLIWVKRKW] | −1.3 | 
4 | IRILVLRKAIIV-NH2 [MILBFmax-9, IRILVLRKAIIV] | 23.9 | 
5 | IVKKVKLIWGVK-NH2 [MILBFmax-13, IVKKVKLIWGVK] | −3.2 | 
6 | IVKWIAQWKLVG-NH2 [Imax- 10] | −1 | 
7 | KIWGLLKLGIAL-NH2 [Imax-6, KIWGLLKLGIAL] | 1.1 | 
8 | KKQKKIWRRILV-NH2 [Mmax- 16] | 1.8 | 
9 | KRLQWVKVKKIR-NH2 [BFmax-16, KRLQWVKVKKIR] | 0.6 | 
10 | KVQIIKQLIAKK-NH2 [BFmax-7, KVQIIKQLIAKK] | −3.9 | 
11 | KVVWWKVIIKVL-NH2 [BFmax-2, KVVWWKVIIKVL] | −3.5 | 
12 | LKLKAILKIIRV-NH2 [MILBFmax-1, LKLKAILKIIRV] | 1.5 | 
13 | QIIKVVWRAVII-NH2 [MILBFmax-8, QIIKVVWRAVII] | −2.3 | 
14 | QQVKWWLIRWLA-NH2 [IBFmax-11, QQVKWWLIRWLA] | −0.1 | 
15 | RARQIRWLRKRV-NH2 [Imin-4, RARQIRWLRKRV] | −4.9 | 
16 | RQVRVKRWRARW-NH2 [Mmax- 18] | −4.9 | 
17 | RVLIKWKKVIVV-NH2 [IBFmax-8, RVLIKWKKVIVV] | −1.8 | 
18 | VARWKIIIAKLW-NH2 [BFmax-5, VARWKIIIAKLW] | 2 | 
19 | VIKVLIKRWLKL-NH2 [BFmax-9, VIKVLIKRWLKL] | 7.4 | 
20 | VKGAIKRGIWVK-NH2 [Imax- 5] | 3 | 
21 | VQWIQIVVWRKR-NH2 [BFmax-6, VQWIQIVVWRKR] | −4.4 | 
22 | VRLIVAVRIWRR-NH2 [Peptide 1018, VRLIVAVRIWRR, reference compound] | 21.8 | percentage of biofilm inhibited (S. aureus (MRSA SAP0017); SPOT-synthesized peptide, ~2.5 μM, MRSA SAP0017): 31%; MIC (μM) MHB ([1]; broth microdilution in Mueller Hinton Broth (MHB)): 4 µM; MIC (μM) TSB with 1% Glucose ([1]; broth microdilution in Tryptic Soy Broth (TSB) supplemented with 1% glucose): >64 µM
23 | VRLIVOrnVRIWRR (VRLIV[Orn]VRIWRR-NH2; N-terminus assumed; SMILES CC[C@H](C)[C@H](NC(=O)[C@H](CCCNC(=N)N)NC(=O)[C@@H](NC(=O)[C@H](CCCN)NC(=O)[C@@H](NC(=O)[C@@H](NC(=O)[C@H](CC(C)C)NC(=O)[C@H](CCCNC(=N)N)NC(=O)[C@@H](N)C(C)C)[C@@H](C)CC)C(C)C)C(C)C)C(=O)N[C@@H](Cc1c[nH]c2ccccc12)C(=O)N[C@@H](CCCNC(=N)N)C(=O)N[C@@H](CCCNC(=N)N)C(N)=O) [Peptide 1018-k30] |  | % Residual MRSA biofilm growth compared to untreated control (S. aureus (MRSA SAP0017); SPOT synthesized peptide, ~12.5 μM, clinical MRSA strain, crystal violet assay): 27%
24 | VVGLRVRWVRLW-NH2 [Imin-3, VVGLRVRWVRLW] | −4.3 | 
25 | WAVRALKVKWAL-NH2 [Imax-20, WAVRALKVKWAL] | −2.7 | 
26 | WWIKIVVIRVRR-NH2 [IBFmax-13, WWIKIVVIRVRR] | −2 | 
